Measured values reported in a melting point compilation (Tetko et al.).

Row | melting point | SMILES
1 | 233 to 235 °C | CN1CC(=O)Nc2ccc(Cl)nc21
2 | 169 to 171 °C | O=S(=O)(Nc1nccs1)c1ccccc1
3 | 107 to 109 °C | COC(=O)c1ccc(N)cc1Cl
4 | 79 to 81 °C | N#CCOc1cccc(CC(=O)O)c1
5 | 122 to 124 °C | CC(C)(C)c1nc2ccc(S(=O)(=O)Cl)cc2s1
6 | 70 to 72 °C | O=S(=O)(Cl)Cc1c(Cl)cccc1Cl
7 | 219 to 221 °C | Cc1nn(-c2ccc(Cl)cc2)c(C)c1C(=O)O
8 | 236 to 238 °C | O=C(O)c1sccc1S(=O)(=O)Nc1cccc2cn[nH]c12
9 | 52 to 54 °C | Fc1ccc(NCc2ccccn2)c(F)c1
10 | 162 to 164 °C | O=C(CCl)N1c2ccccc2SCC1c1ccccc1 (stereo not given)
11 | 209 to 211 °C | CNC(=O)c1ccc(C#N)cc1
12 | 148 to 150 °C | Cc1sc2ccc(Cl)cc2c1S(=O)(=O)Cl
13 | 164 to 168 °C | CC1C(=O)Nc2ccc(S(=O)(=O)Cl)cc21 (stereo not given)
14 | 196 to 198 °C | Nc1nnc(Cc2cccc(Cl)c2)s1
15 | 202 to 204 °C | COc1ccc2oc(C(=O)O)c(C)c2c1
16 | 144 to 146 °C | Cc1cc(Br)ccc1NS(C)(=O)=O
17 | 126 to 128 °C | Cc1ccc(-n2nc(-c3ccccc3)cc2N)c(C)c1
18 | 82 to 84 °C | Cc1cccc(-c2nnc(CO)o2)c1
19 | 76 to 78 °C | N#Cc1ccc(CN2CCc3ccccc32)cc1

Row | melting point | SMILES
20 | 184 to 186 °C | O=c1[nH]nc(-c2ccccc2)cc1C(F)(F)F
21 | 163 to 165 °C | Cc1ccc(C(=O)c2c(N)sc3c2CCC3)c(C)c1
22 | 201 to 203 °C | CC1=CC(=O)N(c2ccc(C(=O)O)cc2)C1=O
23 | 176 to 178 °C | Sc1nnc(C2CC2)n1Cc1ccccc1
24 | 210 to 212 °C | Cc1cc(Cl)n2c(nc3ccccc32)c1C#N
25 | 131 to 133 °C | Cc1nn(-c2ccc(Cl)cc2)c(C)c1C=O
26 | 129 to 131 °C | Cc1nc2ccc(C#N)cc2s1
27 | 184 to 186 °C | Cn1c(CO)nnc1-c1ccccc1
28 | 107 to 109 °C | Cc1cccc(C2(C(=O)O)CC2)c1
29 | 173 to 175 °C | O=C(O)c1cnn(-c2ccccc2)c1C1CC1
30 | 292 to 294 °C | O=c1[nH]c(=O)c2ccccc2s1
31 | 43 to 45 °C | CCCc1[nH]c2ccccc2c1CC
32 | 92 to 94 °C | Cc1ccc(-c2nc(C=O)co2)cc1
33 | 49 to 51 °C | Brc1ccc(OCCc2ccccc2)cc1
34 | 123 to 125 °C | Cc1nnc(Cl)c2ccccc12
35 | 135 to 137 °C | Cc1cc(C)c2nc(N)sc2c1
36 | 133 to 135 °C | Cc1cccc(-n2c(S)nnc2-c2ccccc2)c1
37 | 168 to 170 °C | Cc1ccc(C)n1-c1sccc1C(=O)O
38 | 109 to 111 °C | Cc1cc(N)n(-c2ccc(F)cc2)n1

Row | melting point | SMILES
39 | 119 to 121 °C | Cc1ccccc1-c1nc(C(=O)O)cs1
40 | 59 to 61 °C | NC(=S)CCCc1ccccc1
41 | 250 to 252 °C | O=C(O)c1ccc(Nc2ccccc2)c([N+](=O)[O-])c1
42 | 243 to 245 °C | Nc1nc(-c2cc3ccccc3o2)cs1
43 | 144 to 146 °C | OC1CNc2c(ccc3ccccc23)C1 (stereo not given)
44 | 61 to 63 °C | Clc1cc(SCc2ccccc2)ccn1
45 | 186 to 188 °C | O=S(=O)(Nc1cn[nH]c1)c1ccccc1F
46 | 182 to 184 °C | Fc1ccc2nc(NCc3ccccc3)sc2c1
47 | 130 to 132 °C | Cc1ccc2oc(=O)[nH]c2c1
48 | 274 to 276 °C | COC(=O)c1ccc2c(=O)[nH]c(C)nc2c1
49 | 64 to 66 °C | CC(C)(C)c1nn(Cc2ccccc2)cc1C=O
50 | 144 to 146 °C | O=C(O)CCNc1ccccc1[N+](=O)[O-]
51 | 219 to 221 °C | NNc1nc2cc(C(F)(F)F)ccc2s1
52 | 220 to 222 °C | COc1cc(C=C2CC(C(C)(C)C)Cc3c2nc2ccccc2c3C(=O)O)cc(OC)c1OC (stereo not given)
53 | 41 to 43 °C | CNCc1c(C)nn(-c2ccccc2C)c1C
54 | 87 to 89 °C | OCc1cn(-c2ccccc2Cl)nn1
55 | 98 to 100 °C | CCOc1ccc(-c2nc(N)sc2C)cc1
56 | 162 to 164 °C | Nc1nccc(-c2ccccc2)n1
57 | 161 to 163 °C | CN1CC(=O)Nc2cccnc21

More lines, now with the values behind:

Row | SMILES | melting point
58 | NNC(=O)Nc1c(Cl)cc(Cl)cc1Cl | 229 to 231 °C
59 | NC(CC1CCOC1)C(=O)O (stereo not given) | 269 to 271 °C
60 | Cc1cc(C(=O)CCl)c(C)n1CC(N)=O | 218 to 220 °C
61 | N#CCc1nccn1CC(F)(F)F | 106 to 108 °C
62 | CCN(CC)S(=O)(=O)c1ccc(CC#N)nc1 | 72 to 74 °C
63 | Nc1cccc2[nH]cnc12 | 110 to 112 °C
64 | O=C(O)Cc1csc(NC(=O)c2ccco2)n1 | 223 to 225 °C
65 | COC(C)c1nc(CC(=O)O)cs1 (stereo not given) | 154 to 156 °C
66 | CC(O)C(NS(=O)(=O)c1ccc(Cl)cc1)C(=O)O (stereo not given) | 179 to 181 °C
67 | COC(=O)[C@@H]1C[C@@H](O)CN1C(=O)C12CC3CC(CC(C3)C1)C2 | 158 to 160 °C
68 | Cc1nnc(C(Cl)(Cl)Cl)o1 | 47 to 49 °C
69 | O=C(O)c1cc(F)cnc1Cl | 143 to 144 °C
70 | CNS(=O)(=O)Cc1ccc(CN)cc1 | 140 to 142 °C
71 | CN(C)c1ccnc(C(=O)O)c1 | 234 to 236 °C
72 | CCS(=O)(=O)c1ccc(CC(=O)O)cc1 | 53 to 55 °C
73 | CSc1noc(N)n1 | 100 to 102 °C
74 | Clc1ccnc(C2=NCCO2)c1 | 73 to 75 °C
75 | O=C(O)C1C2CCCCC21 (stereo not given) | 86 to 88 °C
76 | O=C(O)CCCCc1ccc(I)cc1 | 109 to 111 °C
77 | O=C1CCc2ccc(F)cc2N1 | 187 to 189 °C
78 | CNC1CCN(c2cc(OC)cc(OC)c2)C1=O (stereo not given) | 73 to 75 °C
79 | O=C(O)c1ccc2c(c1)C(=O)N(C1CCCCC1)C2=O | 188 to 201 °C

Row | SMILES | melting point
80 | CCOc1cc(/C=N/O)ccc1O | 104 to 106 °C
81 | CC(C)N1C(=O)c2ccc(C(=O)O)cc2S1(=O)=O | 238 to 240 °C
82 | O=C(O)CN1C(=O)COc2ccc(S(=O)(=O)Cl)cc21 | 159 to 161 °C
83 | CCNC(=O)C1CCCNC1 (stereo not given) | 60 to 62 °C
84 | O=C(Nc1ccc(Cl)cn1)OCC(F)(F)F | 158 to 160 °C
85 | NS(=O)(=O)CCSc1ccccc1 | 106 to 108 °C
86 | CN(C)CCOc1cc(C(=O)O)ccn1 | 173 to 175 °C
87 | COC(=O)c1cc([N+](=O)[O-])cnc1C | 58 to 60 °C
88 | Cc1ccc(O)c(S(=O)(=O)N2CCNCC2)c1 | 187 to 189 °C
89 | CCOC(=O)Cn1cc(Br)ccc1=O | 81 to 83 °C
90 | O=C(O)C1(c2ccc(Br)cc2)CCC1 | 117 to 119 °C
91 | COc1ccc(CCC(=O)CC#N)cc1 | 58 to 60 °C
92 | COC(=O)c1cc(S(=O)(=O)Cl)c(Cl)cc1Cl | 110 to 112 °C
93 | NC(C(=O)O)c1cccs1 (stereo not given) | 208 to 210 °C
94 | Cn1ncc2c(N)ncnc21 | 264 to 266 °C
95 | CC(C)(C)c1ccc(C(O)CN)cc1 (stereo not given) | 125 to 127 °C
96 | O=C(O)CCCNS(=O)(=O)c1ccc2c(c1)CCCC2 | 130 to 132 °C
97 | CCC(=O)Nc1ccc(O)c(C(=O)O)c1 | 217 to 219 °C
98 | CC(C)(C)c1cnnc(N)n1 | 187 to 189 °C
99 | O=C(O)Cn1ncn2nccc2c1=O | 213 to 215 °C
100 | O=C(O)c1c[nH]c(C(=O)N2CCCC2)c1 | 264 to 266 °C
101 | CC(=O)Nc1ccc(O)c(C(=O)O)c1 | 221 to 223 °C

Row | SMILES | melting point
102 | O=C(O)C1CCCCN1S(=O)(=O)c1ccc(Br)cc1 (stereo not given) | 133 to 135 °C
103 | O=C(CCl)N1CCCc2cc(S(=O)(=O)N3CCCC3)ccc21 | 146 to 148 °C
104 | NC(=O)c1[nH]cnc1N | 249 to 251 °C
105 | CC(=O)CC(=O)c1ccc(Br)cc1 | 92 to 94 °C
106 | CC1CCc2c(sc3nc(C(C)Cl)[nH]c(=O)c23)C1 (stereo not given) | 248 to 250 °C
107 | Cc1c(Cl)cc(S(=O)(=O)Cl)cc1[N+](=O)[O-] | 60 to 62 °C
108 | CC(=O)c1ccc(Cl)c(S(=O)(=O)Cl)c1 | 111 to 113 °C
109 | CCc1ccc(C(=O)O)cc1CC | 100 to 102 °C
110 | NC(=O)c1nc(Cl)ccc1N | 164 to 166 °C
111 | CN(C)c1nc(Cl)c(C=O)s1 | 109 to 111 °C
112 | O=Cc1cccc(Br)c1OC(F)F | 49 to 51 °C
113 | O=C(O)c1ccc(S(=O)(=O)C(F)(F)F)cc1 | 244 to 246 °C
114 | O=C(O)c1ccc(S(=O)(=O)N2CCCCCC2)cc1 | 235 to 237 °C
115 | COc1cccnc1N | 76 to 78 °C
116 | Nc1ccc(Oc2ccc(Br)cc2)cc1 | 58 to 60 °C
117 | O=C(Cn1cc(C(=O)O)cn1)NC1CCCCC1 | 247 to 249 °C
118 | O=C(O)C1CC(=O)N(C2CC2)C1 (stereo not given) | 93 to 95 °C
119 | Cc1nn(C)c(Cl)c1CO | 92 to 94 °C
120 | O=C(O)c1ccc(OC2CCC2)cc1Cl | 127 to 129 °C
121 | Cc1cc(C(=O)O)c(C)n1C(C)C | 178 to 180 °C
122 | Nc1c(O)c(Cl)cc(Cl)c1Cl | 119 to 121 °C
123 | Nc1cccc(C(=O)O)n1 | 310 to 312 °C

Row | SMILES | melting point
124 | CC1CNc2cccnc2N1 (stereo not given) | 110 to 112 °C
125 | Fc1ccc(COc2ccc(CCl)cc2)cc1 | 57 to 59 °C
126 | NCCN1C(=O)C2C3C=CC(C3)C2C1=O (stereo not given) | 69 to 71 °C
127 | CNCc1nnn[nH]1 | 224 to 226 °C
128 | NCCc1c[nH]c2cc(F)ccc12 | 74 to 76 °C
129 | COc1cc(NS(=O)(=O)c2ccc(N)cc2)cc(OC)c1 | 153 to 155 °C
130 | O=C(CBr)c1c[nH]c2ncccc12 | 209 to 211 °C
131 | Nc1nccnc1Br | 129 to 131 °C
132 | CC1C=C(C(=O)O)CC1 (stereo not given) | 33 to 35 °C
133 | O=c1[nH]c(-c2cccs2)no1 | 183 to 185 °C
134 | CC(=O)c1cc2c(cc1[N+](=O)[O-])OCO2 | 121 to 123 °C
135 | Nc1nc(C2CC2)c(C(=O)O)s1 | 99 to 101 °C
136 | O=C(O)CSc1nccs1 | 151 to 153 °C
137 | O=C(O)CCC(=O)NCC(=O)c1ccccc1 | 143 to 145 °C
138 | O=C(O)Cn1ccc(C(F)(F)F)n1 | 58 to 64 °C
139 | CNc1ccnc(C(N)=O)c1 | 157 to 159 °C
140 | CS(=O)(=O)N1CCCc2cc(C(=O)O)ccc21 | 218 to 220 °C
141 | Cn1cc(-c2cncc(C(=O)O)c2)cn1 | 260 to 262 °C
142 | CC(CC(=O)O)c1ccc(F)cc1F (stereo not given) | 66 to 68 °C
143 | COCC(C)n1cc(C(=O)O)c(C)n1 (stereo not given) | 114 to 116 °C
144 | Cc1nc(S)nc(O)c1C | 276 to 278 °C
145 | O=C(O)Cc1ccc(NS(=O)(=O)c2cccc(C(F)(F)F)c2)cc1 | 122 to 124 °C
